Series [1] relates to 4T1. As to the kind of experiment: Antitumor activity against mouse 4T1 cells implanted in BALB/c mouse assessed as reduction in HK2 proetin level […] at 50 mg/kg, ip measured after 25 days in presence of cisplatin by Western blot analysis. The series is classed as functional, organism-based. To be noted: time 25.0 day.
The target in series [2] is Protein cereblon/Hexokinase-2 (Mus musculus) (UniProt O08528+Q8C7D2). Nature of the series: PROTAC activity at CRBN/HK2 in mouse 4T1 cells assessed as […] ternary complex formation at 10 uM incubated for 24 hrs in presence of MG132. The series is classed as cell-based.
Protein cereblon/Hexokinase-2 (Mus musculus), sequence (Q8C7D2 whole entry, looked up, one chain of several): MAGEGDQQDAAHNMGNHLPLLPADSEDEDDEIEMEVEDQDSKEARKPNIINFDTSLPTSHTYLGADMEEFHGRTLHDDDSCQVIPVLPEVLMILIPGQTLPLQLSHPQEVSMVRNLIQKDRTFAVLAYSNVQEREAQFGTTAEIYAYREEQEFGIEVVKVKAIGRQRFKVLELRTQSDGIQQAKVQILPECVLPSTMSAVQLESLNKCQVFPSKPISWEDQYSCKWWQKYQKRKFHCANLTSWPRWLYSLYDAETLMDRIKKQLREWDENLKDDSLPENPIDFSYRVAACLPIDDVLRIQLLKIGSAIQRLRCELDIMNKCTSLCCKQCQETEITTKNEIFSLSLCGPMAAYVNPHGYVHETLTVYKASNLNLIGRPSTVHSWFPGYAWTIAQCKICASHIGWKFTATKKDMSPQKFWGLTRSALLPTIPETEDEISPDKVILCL
Series [3] relates to 4T1. As to the kind of experiment: Induction of mitochondrial damage in mouse 4T1 cells assessed as increase in ROS generation at 20 uM measured for 36 hrs by Hoechst 33342 staining based confocal fluorescence microscopic analysis. The series is classed as functional, cell-based.
For series [4], the system named is MCF7. Nature of the series: Antiproliferative activity against human MCF7 cells assessed as cell growth inhibition measured for 72 hrs by MTT assay. The series is classed as functional, cell-based. To be noted: MCF7, 72 h.
The subject of series [5] is 4T1. Nature of the series: Downregulation of PD-L1 expression in mouse 4T1 cells membrane at 20 uM measured for 36 hrs. It is filed as functional, cell membranes.
Series [6] has as its system 4T1. Nature of the series: Antitumor immunity against mouse 4T1 cells implanted in BALB/c mouse model assessed as decrease in PD-L1 protein expression in tumor. The series is classed as functional, cell-based.
Series [7] concerns 4T1. As to the kind of experiment: Induction of pyroptosis in mouse 4T1 cells assessed as reduction in full length caspase-3 level at 20 uM incubated for 36 hrs. The series is classed as functional, cell-based.
Series [8] addresses T1, Hexokinase-2 (Mus musculus) (UniProt O08528).
T1 sequence (whole entry): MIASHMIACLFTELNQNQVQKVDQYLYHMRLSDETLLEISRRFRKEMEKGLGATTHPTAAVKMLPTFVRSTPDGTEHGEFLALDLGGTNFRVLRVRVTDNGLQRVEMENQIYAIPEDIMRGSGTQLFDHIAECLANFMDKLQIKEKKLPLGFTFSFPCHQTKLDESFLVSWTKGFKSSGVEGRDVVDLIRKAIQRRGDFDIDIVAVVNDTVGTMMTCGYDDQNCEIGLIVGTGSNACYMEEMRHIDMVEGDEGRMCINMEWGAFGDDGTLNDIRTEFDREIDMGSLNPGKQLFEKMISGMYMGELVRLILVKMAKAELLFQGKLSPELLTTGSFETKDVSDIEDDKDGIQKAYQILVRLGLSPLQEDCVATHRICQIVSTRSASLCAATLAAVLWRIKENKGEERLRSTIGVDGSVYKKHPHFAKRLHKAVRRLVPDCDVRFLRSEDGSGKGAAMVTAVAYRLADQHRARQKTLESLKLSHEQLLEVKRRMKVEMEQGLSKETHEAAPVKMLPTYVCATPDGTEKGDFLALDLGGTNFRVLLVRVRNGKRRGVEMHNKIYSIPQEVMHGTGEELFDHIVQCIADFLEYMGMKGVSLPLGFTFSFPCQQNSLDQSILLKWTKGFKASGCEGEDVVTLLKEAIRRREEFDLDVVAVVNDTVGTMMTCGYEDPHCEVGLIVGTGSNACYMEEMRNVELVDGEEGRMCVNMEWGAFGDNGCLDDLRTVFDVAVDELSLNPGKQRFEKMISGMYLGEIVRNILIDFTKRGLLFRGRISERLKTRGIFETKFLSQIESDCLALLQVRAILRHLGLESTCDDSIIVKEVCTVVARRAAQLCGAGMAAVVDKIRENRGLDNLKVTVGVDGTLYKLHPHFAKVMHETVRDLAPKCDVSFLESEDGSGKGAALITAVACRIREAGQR
As to the kind of experiment: Induction of HK2 degradation in mouse 4T1 cells at 20 uM measured for 36 hrs by Western blot analysis relative to control. It is filed as cell-based. A general note: Immunoblotting shows a protein as a band on a membrane.

Series [9] can be described thus: Toxicity in BALB/c mouse implanted wth mouse 4T1 cells assessed as effect on body weight at 50 mg/kg, ip measured after 23 days. The conditions noted are these: in vivo, 552 h, time 23 day. It is filed as organism-based.
Series [10] relates to 4T1. As to the kind of experiment: Potency index, ratio of IC50 for lonidamine to test compound IC50 for mouse 4T1 cells assessed as cell growth inhibition measured for 72 hrs by MTT assay. The series is classed as functional. For orientation: Tetrazolium dyes change colour on reduction, which living cells bring about.
Series [11] deals with T2, Hexokinase-2 (Homo sapiens) (UniProt P52789).
T2 sequence (whole entry): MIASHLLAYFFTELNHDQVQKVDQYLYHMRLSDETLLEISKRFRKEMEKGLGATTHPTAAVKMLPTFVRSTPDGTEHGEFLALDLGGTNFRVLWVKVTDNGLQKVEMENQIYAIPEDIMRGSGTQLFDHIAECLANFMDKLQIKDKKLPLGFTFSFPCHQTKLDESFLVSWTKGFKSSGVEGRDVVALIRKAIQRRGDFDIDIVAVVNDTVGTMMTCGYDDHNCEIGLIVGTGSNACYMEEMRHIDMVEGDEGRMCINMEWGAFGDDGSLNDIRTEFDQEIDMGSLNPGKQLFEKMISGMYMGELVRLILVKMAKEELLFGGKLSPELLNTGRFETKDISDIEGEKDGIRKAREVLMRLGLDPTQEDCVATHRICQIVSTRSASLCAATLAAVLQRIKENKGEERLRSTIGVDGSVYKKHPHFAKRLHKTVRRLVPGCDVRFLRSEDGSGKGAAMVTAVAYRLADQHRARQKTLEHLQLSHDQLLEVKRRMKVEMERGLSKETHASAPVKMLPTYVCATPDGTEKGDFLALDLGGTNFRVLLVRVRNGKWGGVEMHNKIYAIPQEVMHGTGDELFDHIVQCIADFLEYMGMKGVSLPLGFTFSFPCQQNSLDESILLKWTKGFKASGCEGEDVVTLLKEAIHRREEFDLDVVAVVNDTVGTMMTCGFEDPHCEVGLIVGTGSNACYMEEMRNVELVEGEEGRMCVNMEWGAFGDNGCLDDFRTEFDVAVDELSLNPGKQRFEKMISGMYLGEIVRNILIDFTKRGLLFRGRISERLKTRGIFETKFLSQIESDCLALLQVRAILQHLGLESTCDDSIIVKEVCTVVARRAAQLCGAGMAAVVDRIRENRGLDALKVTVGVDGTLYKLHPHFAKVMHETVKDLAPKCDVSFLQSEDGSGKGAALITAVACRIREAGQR
As to the kind of experiment: Induction of HK2 degradation in human MDA-MB-231 cells assessed as increase in Bax expression at 20 uM measured for 36 hrs by Western blot analysis. The series is classed as cell-based.

Series [12] concerns the target Protein cereblon/Hexokinase-2 (Homo sapiens) (UniProt P52789+Q96SW2). As to the kind of experiment: PROTAC activity at CRBN/HK2 in human MDA-MB-231 cells assessed as […] ternary complex formation at 10 uM incubated for 24 hrs. The series is classed as cell-based.
The nature of series [13]: Toxicity in BALB/c nude mouse xenografted with human MDA-MB-231 cells assessed as effect on platelet count at 50 mg/kg, ip measured after 30 days by routine blood test. The series is classed as organism-based. To be noted: in vivo, 720 h, time 30 day.
Series [14] deals with 4T1. As to the kind of experiment: Cytotoxicity against mouse 4T1 cells assessed as inhibition of cell growth at 1 to 100 uM incubated for 48 hrs by CCK-8 assay. The series is classed as functional, cell-based. The conditions noted are these: dose 1-100 µM.
Series [15] deals with HGC-27. As to the kind of experiment: Potency index, ratio of IC50 for lonidamine to test compound IC50 for human HGC-27 cells assessed as cell growth inhibition measured for 72 hrs by MTT assay. It is filed as functional.
Series [16] addresses T1, Hexokinase-2 (Mus musculus). Nature of the series: Induction of HK2 degradation in mouse 4T1 cells measured for 36 hrs by confocal microscopic analysis. The series is classed as cell-based. The conditions noted are these: dose 2.0 µM.

Calls of active or inactive are those of the source. The rule behind the calls is not given here.

Protein cereblon/Hexokinase-2 (Homo sapiens), sequence (Q96SW2 whole entry, looked up, one chain of several): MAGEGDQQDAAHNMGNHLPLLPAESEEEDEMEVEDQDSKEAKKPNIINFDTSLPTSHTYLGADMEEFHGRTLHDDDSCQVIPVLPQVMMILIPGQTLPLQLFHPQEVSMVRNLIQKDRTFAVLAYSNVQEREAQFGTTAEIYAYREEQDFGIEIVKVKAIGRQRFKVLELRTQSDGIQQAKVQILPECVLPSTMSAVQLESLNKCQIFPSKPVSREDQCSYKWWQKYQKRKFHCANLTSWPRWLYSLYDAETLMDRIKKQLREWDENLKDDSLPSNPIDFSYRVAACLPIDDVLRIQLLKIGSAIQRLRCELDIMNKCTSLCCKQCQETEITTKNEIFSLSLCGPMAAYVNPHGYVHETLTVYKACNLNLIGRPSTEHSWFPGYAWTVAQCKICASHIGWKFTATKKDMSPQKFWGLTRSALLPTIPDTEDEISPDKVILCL

For orientation: IC50 means the point on the concentration scale where inhibition reaches its midpoint. As to `O=C1CCC(N2C(=O)c3cccc(NCCCCNC(=O)c4nn(Cc5ccc(Cl)cc5Cl)c5ccccc45)c3C2=O)C(=O)N1` (stereo unspecified), the outcome in series [1], in series [3], in series [5], in [6], in [7] and in [11] was Active. Also, the result in series [12] and in [14] was Active. Also, in series [2], the result was inactive. Moreover, the IC50 in series [4] was found to be 21.7 µM. Further, the Activity in series [8] was 71.1%; in series [9], “Non-Toxic”; in [13] it was “Non-Toxic”; in series [16], “Dose-Dependent Effect”. For the same compound, the results for the “Ratio IC50” value in series [10] and in series [15] were 30.1 and 12.7, respectively.

Values taken from ChEMBL document CHEMBL5331124, “Degradation of Hexokinase 2 Blocks Glycolysis and Induces GSDME-Dependent Pyroptosis to Amplify Immunogenic Cell Death for Breast Cancer Therapy” (J Med Chem, 2023).
